≈ marks a conversion by molar mass, not a printed value.
Columns and labels:
α-amylase = α-amylase inhibition assay; format: biochemical; conditions: sample described as 'SR (compound 4a) methanolic extract'
α-glucosidase = α-glucosidase inhibition assay; format: biochemical; conditions: sample described as 'SR (compound 4a) methanolic extract'

IC50 (α-amylase): 112.98 µg/mL (≈ 407 µM) | IC50 (α-glucosidase): 111.42 µg/mL (≈ 402 µM)
Structure (SMILES): C(#CC(c1ccccc1)N1CCOCC1)c1ccccc1 (centres unmarked) [4a, 4-(1,3-diphenylprop-2-yn-1-yl)morpholine]

From paper PMC12626088 (RSC Advances, 2025)
